Consider 13 molecules from PMC8259857, “Anti-tubercular activity and molecular docking studies of indolizine derivatives targeting mycobacterial InhA enzyme” (Journal of Enzyme Inhibition and Medicinal Chemistry, 2021).

Values after ≈ are worked out from the molar mass of the structure shown. Bounds are passed on as bounds.

The test system of series [1] is susceptible H37Rv MTB strain (ATCC 25177). The series is described as follows: Resazurin Microplate Assay (REMA), whole-cell anti-tubercular activity against H37Rv. Type of series: cell-based, Mycobacterium tuberculosis. As to conditions: for MIC: Mycobacterium tuberculosis, read-out: MIC H37Rv; for MIC H37Rv: H37Rv ATCC 25177, NA: not active at the concentration range (0.2–64 μg/mL).

One may read the MIC as the smallest concentration in the dilution series that meets the test's criterion for growth inhibition. Turning to `CCOC(=O)c1cc(C(=O)c2ccc(Cl)cc2)n2ccccc12` [Compound 2b], in series [1], the MIC was determined as 8 µg/mL (≈ 24.4 µM). Consider `CCOC(=O)c1cc(C(=O)c2ccc(Br)cc2)n2ccccc12` [Compound 2c], for which, in series [1], the minimal inhibitory concentration (MIC) came out at 32 µg/mL (≈ 86 µM). Same read-out and setting: as for `CCOC(=O)c1cc(C(=O)c2ccc([N+](=O)[O-])cc2)n2ccccc12` [Compound 2d], the figure is 8 µg/mL (≈ 23.6 µM). Regarding `CCOC(=O)c1cc(C(=O)c2ccc(C)cc2)n2ccccc12` [Compound 2e], the “MIC H37Rv” value in series [1] was “completely abolished the activity”. In the case of `CCOC(=O)c1cc(C(=O)c2ccc(C#N)cc2)n2ccccc12` [Compound 2f], in series [1], the “MIC H37Rv” value is “completely abolished the activity”. On to `CCOC(=O)c1c(C)c(C(=O)c2ccc(F)cc2)n2ccccc12` [Compound 3a], for which the minimum inhibitory concentration (MIC) in series [1] is 4 µg/mL (≈ 12.3 µM).

In the case of `CCOC(=O)c1c(C)c(C(=O)c2ccc(Cl)cc2)n2ccccc12` [Compound 3b], in series [1], the MIC worked out at 32 µg/mL (≈ 93.6 µM). The same measure, in the same setting: the result for `CCOC(=O)c1c(C)c(C(=O)c2ccc([N+](=O)[O-])cc2)n2ccccc12` [Compound 3d] reads 8 µg/mL (≈ 22.7 µM). In general, melting point refers to the temperature of the solid-liquid transition. Molecule `CCOC(=O)c1c(C(=O)OCC)c2ccccn2c1C(=O)c1ccc(F)cc1` [Compound 4a, Diethyl-3-(4-fluorobenzoyl)indolizine-1,2-dicarboxylate] had a melting point of 138 to 139 °C. In addition, the minimal inhibitory concentration (MIC) in series [1] was found to be 8 µg/mL (≈ 20.9 µM). For `CCOC(=O)c1c(C(=O)OCC)c2ccccn2c1C(=O)c1ccc(Cl)cc1` [Compound 4b, Diethyl-3-(4-chlorobenzoyl)indolizine-1,2-dicarboxylate], in that order: 137 to 138 °C and 8 µg/mL (≈ 20 µM).

The molecule `CCOC(=O)c1c(C(=O)OCC)c2ccccn2c1C(=O)c1ccc([N+](=O)[O-])cc1` [Compound 4c, Diethyl-3-(4-nitrobenzoyl)indolizine-1,2-dicarboxylate] registered a melting point of 111 to 112 °C. Further, the MIC in series [1] came to 32 µg/mL (≈ 78 µM).

`NNC(=O)c1ccncc1` [Isoniazid, reference compound]: the MIC in series [1] is under 0.2 µg/mL.

For `CO[C@H]1/C=C/O[C@@]2(C)Oc3c(C)c(O)c4c(O)c(c(/C=N/N5CCN(C)CC5)c(O)c4c3C2=O)NC(=O)/C(C)=C\C=C\[C@H](C)[C@H](O)[C@@H](C)[C@@H](O)[C@@H](C)[C@H](OC(C)=O)[C@@H]1C` [Rifampicin, reference compound], the minimum inhibitory concentration (MIC) in series [1] was under 1 µg/mL.
